Measured values from US11059815B2, “Synthesis of small molecule histone deacetylase 6 degraders, compounds formed thereby, and pharmaceutical compositions containing them” (Wisconsin Alumni Research Foundation, priority 2018, dated 2021).
Where two headings read alike, the source gives them in different places. One block for each molecule: values may come before it.

Test system: MM1S cells
Assay: Cell viability assay in MM1S cells
Assay type: cell-based, human
Conditions: for Maximal Inhibition (%) of growth / IC50: 0.3 nM to 3 μM, nonlinear fit, ± SD; for IC50 / inhibition at 1 µM: Homo sapiens, MM1.S; for IC50: read-out: IC50 of antiproliferation
Method: FIG. 14A is a histogram depicting cell viability of MM1S cells treated with compounds at 1 μM for 72 h. FIG. 14B is a graph showing cell viability of MM1S cells treated with compounds at concentrations from 0.3 nM to 3 μM for 72 h. All data were normalized to vehicle (DMSO)-treated group and dot plot represented as mean of relative viability (n=3) with ±SD as error bar. For the curve in FIG. 14B, nonlinear fitting of inhibitor concentration vs. response (three parameters) was generated by GraphPad Prism with R^2 from 0.92 to 0.97. Statistical significance was analyzed by one-way ANOVA for FIG. 14A and two-way ANOVA for FIG. 14B. Not significant (ns) P>0.05, *P≤0.05, **P≤0.01, ***P≤0.001, ****P≤0.0001.
FIG. 18 is a histogram showing that HDAC6 degrader and IMiD inhibited MM1S growth synergistically. MM1S cells were treated for 72 h and cell proliferation was examined by AlarmaBlue-brand cell viability assay (ThermoFisher Scientific, Waltham, Mass., USA). Statistical significance was analyzed by one-way ANOVA. Not significant (ns) P>0.05, *P≤0.05, **P≤0.01, ***P≤0.001, ****P≤0.000
Single treatment or co-treatment was performed as combined therapy (1 μM) for 72 hours in MM1S cells. […] However, the single treatment of 12d improved about 19% (P=0.0017) and 11% (P=0.0213) growth inhibition comparing with the combination sets of 13+15 (1:1) and pomalidomide+Next-A (1:1), respectively. To further confirm the observed enhancement, the anti-proliferation in response to 12d was studied from 0.3 nM to 3 μM. This single treatment was compared with dual treatment of 13 and 15 to rule out the potential complication derived from cell permeability issue. Degrader 12d lowered the bottom line (minimal proliferation) of curve over 20% although its IC50 was […] consequentially.
MM1S cells were harvested and plated with 1×10^5 cells in […] media per well in 96-well plate. After overnight seeding, 25 μL media containing 5× dosing concentration of the compounds or vehicle was added to each well. After 72-hour treatment at 37° C. in a humidified 5% CO2 atmosphere, 12.5 μL 10× resazurin solution (1 mg/mL) was added to each well. Then cells were incubated at 37° C. overnight. The optical density was read at 570 nm and 600 nm by plate reader.
The relative viability (RV) was measured by followed formula: […]
The single treatment of HDAC6 inhibitor, HDAC6 degrader 3j, IMiD (pomalidomide), and the combination of the two was compared in MM1S cells to evaluate cell vialility. […] Pomalidomide suppressed ˜50% proliferation at either 1 μM or 100 nM concentration. […] The results confirmed that HDAC6 degradation and IKZF degradation work synergistically to inhibit the growth of multiple myeloma cells.

Compound: CCCCN(Cc1ccc(C(=O)NO)cc1)C(=O)Nc1ccc(OCCCCCn2cc(CNc3cccc4c3C(=O)N(C3CCC(=O)NC3=O)C4=O)nn2)cc1 (stereo not shown) [Compound 2]
- anti-proliferation effect of degrader alone: significant anti-proliferation effect

- IC50 (72 h): 74.9 ± 11.3 nM
Compound: CCCCN(Cc1ccc(C(=O)NO)cc1)C(=O)Nc1ccc(OCCCCCn2cc(CNc3cccc4c3C(=O)N(C3CCC(=O)NC3=O)C4=O)nn2)cc1 (stereo not shown) [Compound 12d, 4-((1-butyl-3-(4-((5-(4-(((2-(2,6-dioxopiperidin-3-yl)-1,3-dioxoisoindolin-4-yl)amino)methyl)-1H-1,2,3-triazol-1-yl)pentyl)oxy)phenyl)ureido)methyl)-N-hydroxybenzamide]
- Maximal Inhibition (%) of growth (72 h): 63.15 ± 1.82%
- degrader concentration at which HDAC6 degradation and IKZF degradation had synergistic effects (72 h): > 300 nM
- lowering of bottom line (minimal proliferation) of curve (72 h, versus 13 and 15 dual treatment): over 20%
- inhibition at 1 µM (1 μM, 72 h, P=0.0017, read-out: improvement of growth inhibition compared with 13+15 (1:1)): ~19%
- inhibition at 1 µM (1 μM, 72 h, P=0.0213, read-out: improvement of growth inhibition compared with pomalidomide+Next-A (1:1)): ~11%

- IC50 (72 h): 17.7 ± 2.84 nM
Compound: CCCCN(Cc1ccc(C(=O)OC)cc1)C(=O)Nc1ccc(OCCCCCn2cc(CNc3cccc4c3C(=O)N(C3CCC(=O)NC3=O)C4=O)nn2)cc1 (stereo not shown) [Compound 13, Methyl 4-((1-butyl-3-(4-((5-(4-(((2-(2,6-dioxopiperidin-3-yl)-1,3-dioxoisoindolin-4-yl)amino)methyl)-1H-1,2,3-triazol-1-yl)pentyl)oxy)phenyl)ureido)methyl)benzoate]
- Maximal Inhibition (%) of growth (72 h): 43.96 ± 1.16%

Compound: CCCCN(Cc1ccc(C(=O)NO)cc1)C(=O)Nc1ccc(OCCCCCn2cc(CNc3cccc4c3C(=O)N(C3CCC(=O)N(C)C3=O)C4=O)nn2)cc1 (stereo not shown) [Compound 15, 4-((1-butyl-3-(4-((5-(4-(((2-(1-methyl-2,6-dioxopiperidin-3-yl)-1,3-dioxoisoindolin-4-yl)amino)methyl)-1H-1,2,3-triazol-1-yl)pentyl)oxy)phenyl)ureido)methyl)-N-hydroxybenzamide]
- effect on cell growth (1 μM, 72 h): totally inactive

Compound: CCCCN(Cc1ccc(C(=O)NO)cc1)C(=O)Nc1ccccc1 [Next-A, 4-[[butyl[(phenylamino)carbonyl]amino]methyl]-N-hydroxy-benzamide, reference compound]
- anti-proliferation effect, single treatment (1 μM, 72 h): did not show any anti-proliferation effect
- effect on cell growth (1 μM, 72 h): minor effects

Compound: Nc1cccc2c1C(=O)N(C1CCC(=O)NC1=O)C2=O (stereo not shown) [Pomalidomide, reference compound]
- suppression of proliferation (either 1 μM or 100 nM, 72 h): ~50%
